Consider 5 cell lines from the supplement of paper PMC10307832.

Holding throughout (test): relative viability (nuclei count vs DMSO), 5 days (fraction); higher = more cells survive
Compound in assay [1]: CCC1=CN=CN=C1N2CCN(CC2)CC3=NC4=C(N3)C=C(C=C4)C(F)(F)F + C[C@@H](Oc1cc(-c2cnn(C3CCNCC3)c2)cnc1N)c1c(Cl)ccc(F)c1Cl [Crizotinib] (partner 1 µM)
Summed up: (§1)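 Relative viability was taken as the ratio of nuclei in treated wells to nuclei in vehicle wells. Lung cancer cell lines in 1536-well plates received compounds by pin tool one day after seeding, either one drug alone or a fixed anchor-drug dose plus five library-drug doses (not always all listed) in √10 steps. Nuclei were counted on 4× images after 5 days of treatment, and values are medians of duplicate plates.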

Compound in assay [2]: CCC1=CN=CN=C1N2CCN(CC2)CC3=NC4=C(N3)C=C(C=C4)C(F)(F)F + C[C@]1(O)C[C@@H](c2nc(-c3ccc4ccc(-c5ccccc5)nc4c3)c3c(N)nccn32)C1 [Linsitinib] (partner 1 µM)
A digest of the protocol: as §1

Compound in assay [3]: CCC1=CN=CN=C1N2CCN(CC2)CC3=NC4=C(N3)C=C(C=C4)C(F)(F)F + Cc1nc(NC(=O)N2CCC[C@H]2C(N)=O)sc1-c1ccnc(C(C)(C)C(F)(F)F)c1 [Alpelisib] (partner 2 µM)
A digest of the protocol:
as §1

Compound in assay [4]: CCC1=CN=CN=C1N2CCN(CC2)CC3=NC4=C(N3)C=C(C=C4)C(F)(F)F + O=C(c1cc(Cc2n[nH]c(=O)c3ccccc23)ccc1F)N1CCN(C(=O)C2CC2)CC1 [Olaparib] (partner 8 µM)
Summed up:
as §1

With NCI-H2347, the relative viability in assay [1] (first compound 0.04 µM) was determined as 0.776; in assay [1] (first compound 0.1265 µM), 0.684; in assay [1] (first compound 0.4 µM), 0.759; in assay [1] (first compound 1.265 µM), 0.601; in assay [1] (first compound 4 µM), 0.749; in assay [2] (first compound 0.04 µM), 0.961. The relative viability in assay [2] (first compound 0.1265 µM) stood at 0.926; in assay [2] (first compound 0.4 µM) it was 0.944; in assay [2] (first compound 1.265 µM), 0.942; in assay [2] (first compound 4 µM) it was 1.09; in assay [3] (first compound 0.04 µM), 1.07; in assay [3] (first compound 0.1265 µM), 1.07. Moreover, the relative viability is 0.948 in assay [3] (first compound 0.4 µM); 0.769 in assay [3] (first compound 1.265 µM); 0.938 in assay [3] (first compound 4 µM); 0.6 in assay [4] (first compound 0.04 µM); 0.654 in assay [4] (first compound 0.1265 µM); 0.603 in assay [4] (first compound 0.4 µM). For the same cell line, the relative viability in assay [4] (first compound 1.265 µM) stood at 0.59; in assay [4] (first compound 4 µM) it was 0.575.
NCI-H2405: the relative viability was found to be 0.847 in assay [1] (first compound 0.04 µM); 0.867 in assay [1] (first compound 0.1265 µM); 0.855 in assay [1] (first compound 0.4 µM); 1.02 in assay [1] (first compound 4 µM); 0.958 in assay [2] (first compound 0.04 µM); 1.01 in assay [2] (first compound 0.1265 µM). The relative viability stood at 0.833 in assay [2] (first compound 0.4 µM); 1.02 in assay [2] (first compound 4 µM); 0.858 in assay [3] (first compound 0.04 µM); 0.768 in assay [3] (first compound 0.1265 µM); 0.651 in assay [3] (first compound 0.4 µM); 0.941 in assay [3] (first compound 4 µM). Moreover, the relative viability in assay [4] (first compound 0.04 µM) came out at 0.898; in assay [4] (first compound 0.1265 µM), 0.874; in assay [4] (first compound 0.4 µM), 0.821; in assay [4] (first compound 4 µM) it was 0.919.
For the cell line NCI-H3122, the relative viability is 0.262 in assay [1] (first compound 0.04 µM); 0.264 in assay [1] (first compound 0.1265 µM); 0.318 in assay [1] (first compound 0.4 µM); 0.531 in assay [1] (first compound 1.265 µM); 0.469 in assay [1] (first compound 4 µM); 1.11 in assay [2] (first compound 0.04 µM). In addition, the relative viability in assay [2] (first compound 0.1265 µM) came to 1.11; in assay [2] (first compound 0.4 µM), 1.01; in assay [2] (first compound 1.265 µM) it was 1.08; in assay [2] (first compound 4 µM), 0.93; in assay [3] (first compound 0.04 µM), 0.954; in assay [3] (first compound 0.1265 µM), 0.77. Moreover, the relative viability in assay [3] (first compound 0.4 µM) worked out at 0.856; in assay [3] (first compound 1.265 µM) it was 1.01; in assay [3] (first compound 4 µM) it was 0.872; in assay [4] (first compound 0.04 µM) it was 0.663; in assay [4] (first compound 0.1265 µM) it was 0.55; in assay [4] (first compound 0.4 µM), 0.551. For the same cell line, the relative viability in assay [4] (first compound 1.265 µM) came out at 0.54; in assay [4] (first compound 4 µM) it was 0.56.
For PC-3 [JPC-3], the relative viability in assay [1] (first compound 0.04 µM) worked out at 0.989; in assay [1] (first compound 0.1265 µM), 0.919; in assay [1] (first compound 0.4 µM) it was 0.948; in assay [1] (first compound 1.265 µM), 0.92; in assay [1] (first compound 4 µM), 0.934; in assay [2] (first compound 0.04 µM), 0.972. Besides, the relative viability worked out at 0.882 in assay [2] (first compound 0.1265 µM); 0.969 in assay [2] (first compound 0.4 µM); 0.906 in assay [2] (first compound 1.265 µM); 0.911 in assay [2] (first compound 4 µM); 1.06 in assay [3] (first compound 0.04 µM); 0.94 in assay [3] (first compound 0.1265 µM). Also, the relative viability was found to be 1.02 in assay [3] (first compound 0.4 µM); 1.04 in assay [3] (first compound 1.265 µM); 0.96 in assay [3] (first compound 4 µM); 1.02 in assay [4] (first compound 0.1265 µM); 1.13 in assay [4] (first compound 0.4 µM); 1.02 in assay [4] (first compound 1.265 µM). Moreover, in assay [4] (first compound 4 µM), the relative viability was 0.977.
Consider PC-14, for which the relative viability in assay [1] (first compound 0.04 µM) turned out to be 1.02; in assay [1] (first compound 0.1265 µM), 0.781; in assay [1] (first compound 0.4 µM) it was 0.976; in assay [1] (first compound 1.265 µM), 0.915; in assay [1] (first compound 4 µM), 1.06; in assay [2] (first compound 0.04 µM), 0.918. Also, the relative viability came out at 0.896 in assay [2] (first compound 0.1265 µM); 0.965 in assay [2] (first compound 0.4 µM); 0.931 in assay [2] (first compound 1.265 µM); 0.982 in assay [2] (first compound 4 µM); 1.07 in assay [3] (first compound 0.04 µM); 0.869 in assay [3] (first compound 0.1265 µM). For the same cell line, the relative viability was 0.959 in assay [3] (first compound 0.4 µM); 0.766 in assay [3] (first compound 1.265 µM); 0.982 in assay [3] (first compound 4 µM); 0.231 in assay [4] (first compound 0.04 µM); 0.275 in assay [4] (first compound 0.1265 µM); 0.29 in assay [4] (first compound 0.4 µM). Further, the values for the relative viability in assay [4] (first compound 1.265 µM) and in assay [4] (first compound 4 µM) were 0.25 and 0.261, respectively.
